Each compound was assayed on KB (assay: Cytotoxicity against human KB cells).
Assay type: functional, cell-based
C=C[C@H]1CC[C@H]2[C@@H]3CC[C@H]4[C@@H](O[C@@H]5O[C@H](CO)[C@@H](O)[C@H](OS(=O)(=O)O)[C@H]5O)[C@@H](OS(=O)(=O)O)CC[C@]4(CO)[C@H]3CC[C@]12C was tested, and the Activity was “Not toxic”.
For C=CC1C(O)CC2C3CCC4C(O)C(O)C(OS(=O)(=O)O)CC4(C)C3CCC12C (stereo not given), the Activity was “Not toxic”.
For C=C[C@H]1CC[C@H]2[C@@H]3CC[C@H]4[C@@H](O[C@@H]5O[C@H](CO)[C@@H](O)[C@H](OS(=O)(=O)O)[C@H]5O)[C@@H](O)CC[C@]4(CO)[C@H]3CC[C@]12C, the Activity was “Not toxic”.
With C=CC1C(O)C(O)C2C3CCC4C(O)C(O)C(OS(=O)(=O)O)CC4(C)C3CCC12C (stereo not given) the Activity was “Not toxic”.
With C=CC1CC(O)C2C3CCC4C(O)C(O)C(OS(=O)(=O)O)CC4(C)C3CCC12C (stereo not given) the Activity was “Not toxic”.

— ChEMBL document CHEMBL1151826, “Sulfated steroids: ptilosteroids A-C and ptilosaponosides A and B from the Solomon Islands marine sponge Ptilocaulis spiculifer” (J Nat Prod, 2009)
